Source: patent publication US20060035927A1, “Calcilytic compounds” (SmithKline Beecham Corporation, priority 1999, published 2006)
Where a name gives a salt, the structure may show the parent alone.

Key:
[1] = tested on: plasma PTH; experiment: Ovariectomized rat Study 1: circulating PTH levels (RIA); assay type: in vivo
Text: (§1) Seven month old virgin Sprague Dawley female rats were subjected to bilateral ovariectomy or sham surgery and the animals then held for a period of three months to allow the development of osteopenia. At that time a single sham group (n=10) and three groups of ovariectomized (ovx) animals (n=10-14) were assigned. The ovx groups were selected such that there was no significant difference in bone mineral density (“BMD”) of the lumbar spine, proximal tibia or distal femur between groups. Groups consisted of sham and ovx controls treated with dose vehicle (20% aqueous encapsin) and ovx groups treated with either N-[(2R-Hydroxy-3-[(3-chloro-2-cyano)phenoxy-propyl]-1,1-dimethyl-2-(2-naphthyl)ethyl amine hydrochloride (“calcilytic administered”) ([…] body weight daily p.o.) or rat PTH 1-34 (5 ug/kg body weight daily s.c.).
(§2) During the study blood samples were drawn for determination of circulating PTH and osteocalcin. BMD was determined by DXA (QDR4500 Hologic, Waltham, Mass.) prior to treatment and at weeks 4 and 8. At term tibiae were removed for histological analysis. All animals received tetracycline 10 and 3 days prior to the start of dosing and calcein (10 mg/kg) 10 and 3 days prior to sacrifice.
(§3) Timed plasma samples were collected relative to administration of compound or PTH. PTH 1-34 was measured by RIA (Nichols Institute Diagnostics, San Juan Capistrano, Calif.). The concentrations of compound in the plasma were quantified by LC/MS/MS (limit of detection 10 ng/ml).

[2] = Ovariectomized rat Study 1: circulating compound levels (LC/MS/MS); assay type: in vivo; details: Study 1, plasma, after oral administration
Text: as §1, §3

[3] = tested on: osteopenic ovx rats; experiment: Ovariectomized rat Study 1: dynamic histomorphometry of proximal tibia; assay type: in vivo
Text: as §1, §2
Bone samples were dehydrated through increasing concentrations of ethanol, defatted in acetone and embedded in methyl methacrylate (Polysciences, Inc., Warrington, Pa.). Longitudinal undecalcified sections (5 μm) sections of the proximal tibial were cut on a Leica microtome (SM2500S); the tissue blocks had been prestained with Villanueva stain. Histomorphometric analysis was carried out using an Osteomeasure system (OsteoMetrics Incorpotated), without knowledge of group allocation. Measurements within the tibial metaphysis were restricted to a mean tissue area of approximately 8 mm^2 beginning 1 mm below the growth plate. Primary measurements included area of bone and marrow (mm^2), bone area (mm^2), perimeter of bone (mm), single and double-labelled perimeter (sL.Pm, dL.Pm, m), osteoid perimeter (O.Pm, m) and eroded perimeter (Er.P, m). Derived indices included trabecular bone volume (% Tb.Ar), trabecular number (Th.N, mm^−1), trabecular thickness (Th.Th, μm), trabecular separation (Th.Sp, μm), bone formation rate, surface referent (BFR/Tb.Pm, μm^3/μm^2/year), BFR/Tb.Ar (bone area referent, %/year), BFR/B.Ar (tissue referent, %/year) and mineral apposition rate (MAR, μm/day), and percent labelled perimeter (% Lp). Statistical analysis was assessed by a two sided t-test.

[4] = tested on: osteoblasts; experiment: Toxicity in vitro in osteoblast assays; assay type: cell-based, human; details: 10 uM concentration
Protocol: cAMP accumulation was measured in both human TF274 osteoblastic cells (derived by immortalization of human bone marrow stromal cells) see James, supra, and primary human osteoblasts derived from explants of trabecular bone as described in Beresford, Biochim. Biophys. Acta, Vol. 801, pp. 58-65 ([…]). cAMP levels in cell samples were measured using a non-radioactive protocol (Amersham kit). Alkaline phosphatase activity was determined using the standard colorimetric method as described previously in Gowen, Arth. Rheum., Vol. 31, pp. 1500-1507 (1988). N-[(2R-Hydroxy-3-[(3-chloro-2-cyano)phenoxy-propyl]-1,1-dimethyl-2-(2-naphthyl)ethyl amine hydrochloride was tested at 0.1, 1 and 10 uM. PTH 40 ng/ml was used as a positive control.

[5] = tested on: fetal rat long bone; experiment: Fetal rat long bone resorption assay; assay type: cell-based; details: 45Ca release, PTH-stimulated, 48 hours; read-out: IC50, inhibition of resorption in fetal rat long bone assay
Protocol: The assay was performed essentially as in Votta, Bone, Vol. 15, pp. 533-538, (1994). Timed-pregnant Sprague-Dawley rats (Taconic Farms, Germantown, N.Y.) were injected subcutaneously with 200 microcuries of ^45CaCl2 on day 18 of gestation, housed overnight, then anesthetized with Innovar-Vet (Pittman-Moore, Mundelein, Ill.) and sacrificed by cervical dislocation. The fetuses were removed aseptically and the radii and ulnae were dissected free of surrounding soft tissue and cartilagenous ends. The bone rudiments (n=4) were subsequently cultured for 18-24 hours in BGJb medium (Sigma, St. Louis, Mo.) containing 1 mg/ml BSA, then transferred to fresh medium and cultured for an additional 48 hours in the absence or presence of PTH (human parathyroid hormone, Bachem, Torrence, Calif.) and the desired inhibitor. ^45 Ca released into the medium and the residual ^45Ca in the bones (following solubilization in 5% TCA for 1 hour at room temperature) were quantitated by liquid scintillation spectrometry. Data are expressed as the percent ^45Ca released from treated bones as compared with corresponding control bones. Statistical differences were assessed by a one way analysis of variance (ANOVA). IC-50 values were based on data from two independent experiments.

[6] = Study 1, proximal tibia, vs ovx control, calcilytic 100 mmol/kg p.o. or PTH 5 ug/kg s.c. daily

With CC(C)(Cc1ccc2ccccc2c1)NC[C@@H](O)COc1cccc(Cl)c1C#N [N-[(2R-Hydroxy-3-[(3-chloro-2-cyano)phenoxy-propyl]-1,1-dimethyl-2-(2-naphthyl)ethylamine hydrochloride] as the molecule, how does the “plasma PTH levels at four hours after administration” value ([1]; Study 1, after calcilytic 100 mmol/kg p.o.) read?
The value was “remained high”.

What about the “plasma PTH levels” value ([1]; Study 1, end of experiment, after calcilytic 100 mmol/kg p.o.) of the same molecule?
The value was greater than 100 pg/mL.

And the “plasma PTH levels after 24 hours” value ([1]; Study 1, immediately prior to next dose of calcilytic)?
The value was “back to baseline”.

What about the “sustained exposure to compound (circulating levels)” value [2] of the same molecule?
Its value is “elevated for up to eight hours”.

What about the “bone formation and resorption, net bone gain or loss” value ([3]; Study 1, overall outcome) of the same molecule?
The value was “dramatic increase in both bone formation and resorption, with no net bone gain or loss”.

And the “bone turnover, BFR/B.Ar.” value ([3]; Study 1, proximal tibia, compared with PTH and ovx control groups)?
Its value is “dramatic increase”.

What about the “bone resorption, % eroded perimeter” value ([3]; Study 1, proximal tibia, vs PTH or ovx control groups) of the same molecule?
Its value is “significantly higher”.

What about the “bone formation: % labeled perimeter (% L.Pm.)” value [3, 6] of the same molecule?
The value was “elevated above the ovx control level”.

And the “bone formation: % osteoid perimeter (% Os.Pm)” value [3, 6]?
The value was “elevated above the ovx control level”.

And the toxicity in vitro [4]?
The toxicity in vitro was “some toxicity”.

And the IC50 [5]?
The IC50 was 11.3 µM.
